Measured values taken from patent US20210254056A1, “IDENTIFICATION AND TARGETED MODULATION OF GENE SIGNALING NETWORKS” (CAMP4 THERAPEUTICS CORPORATION, priority 2017, published 2021).

Test system: hepatocytes
Assay: RNA-seq of hepatocytes treated with Phase III failure compounds
Method: RNA-seq was performed to determine the effects of the compounds on hepatocytes.
Significance was determined by the criteria of FPKM≥0.5, a log 2(fold-change)≥1, and a […].

Compound: Cn1cnc2c(F)c(Nc3ccc(Br)cc3Cl)c(C(=O)NOCCO)cc21 [Selumetinib]
- RNA-seq results, CYP2B6 expression: 0.38
- RNA-seq results, CYP2C19 expression: 0.76
- RNA-seq results, CYP2D6 expression: 0.03
- RNA-seq results, CYP3A4 expression: 0.08
- RNA-seq results, CYP7B1 expression: −0.15
- RNA-seq results, CYP39A1 expression: −0.27
- RNA-seq results: CYP2B6 expression: −0.08
- RNA-seq results: CYP2C19 expression: 0.1
- RNA-seq results: CYP2D6 expression: 0.16
- RNA-seq results: CYP3A4 expression: 0.11
- RNA-seq results: CYP7B1 expression: −0.3
- RNA-seq results: CYP39A1 expression: 0.08
- RNA-seq results: A1BG expression (gene A1BG, hepatocytes): 0.00
- RNA-seq results: AGTR1 expression (gene AGTR1, hepatocytes): −0.55
- RNA-seq results: AGXT expression (gene AGXT, hepatocytes): 0.22
- RNA-seq results: AHI1 expression (gene AHI1, hepatocytes): 0.01
- RNA-seq results: AMPD3 expression (gene AMPD3, hepatocytes): 0.22
- RNA-seq results: AMT expression (gene AMT, hepatocytes): 0.29
- RNA-seq results: ANGPTL3 expression (gene ANGPTL3, hepatocytes): −0.67
- RNA-seq results: ANKS4B expression (gene ANKS4B, hepatocytes): −0.06
- RNA-seq results: ANKS6 expression (gene ANKS6, hepatocytes): −0.02
- RNA-seq results: ANPEP expression (gene ANPEP, hepatocytes): 0.04
- RNA-seq results: AOC2 expression (gene AOC2, hepatocytes): 0.28
- RNA-seq results: APOA2 expression (gene APOA2, hepatocytes): −0.45
- RNA-seq results: APOA5 expression (gene APOA5, hepatocytes): 0.13
- RNA-seq results: APOB expression (gene APOB, hepatocytes): −0.10
- RNA-seq results: COG5 expression (gene COG5, hepatocytes): −0.14
- RNA-seq results: COG6 expression (gene COG6, hepatocytes): 0.1
- RNA-seq results: COL1A1 expression (gene COL1A1, hepatocytes): 0.41
- RNA-seq results: COX6A1 expression (gene COX6A1, hepatocytes): 0.02
- RNA-seq results: CP expression (gene CP, hepatocytes): 0.26
- RNA-seq results: CPS1 expression (gene CPS1, hepatocytes): 0.52
- RNA-seq results: CPT1A expression (gene CPT1A, hepatocytes): 0.19
- RNA-seq results: CPT2 expression (gene CPT2, hepatocytes): −0.2
- RNA-seq results: CROT expression (gene CROT, hepatocytes): −0.4
- RNA-seq results: CSPP1 expression (gene CSPP1, hepatocytes): −0.14
- RNA-seq results: CTC1 expression (gene CTC1, hepatocytes): 0.03
- RNA-seq results: CTDSP2 expression (gene CTDSP2, hepatocytes): −0.14
- RNA-seq results: CTH expression (gene CTH, hepatocytes): 0.67
- RNA-seq results: CTNS expression (gene CTNS, hepatocytes): 0.69
- RNA-seq results: CTSF expression (gene CTSF, hepatocytes): 0.19
- RNA-seq results: CTSK expression (gene CTSK, hepatocytes): 0.08
- RNA-seq results: CYB5A expression (gene CYB5A, hepatocytes): −0.09
- RNA-seq results: CYB5R3 expression (gene CYB5R3, hepatocytes): 0.1
- RNA-seq results: CYP27A1 expression (gene CYP27A1, hepatocytes): 0.14
- RNA-seq results: DAO expression (gene DAO, hepatocytes): −0.11
- RNA-seq results: DBT expression (gene DBT, hepatocytes): −0.16
- RNA-seq results: DCDC2 expression (gene DCDC2, hepatocytes): −1.04
- RNA-seq results: DCXR expression (gene DCXR, hepatocytes): 0.01
- RNA-seq results: FABP1 expression (gene FABP1, hepatocytes): 0.06
- RNA-seq results: FADD expression (gene FADD, hepatocytes): −0.08
- RNA-seq results: FAM111A expression (gene FAM111A, hepatocytes): 0.12
- RNA-seq results: FAM111B expression (gene FAM111B, hepatocytes): −1.27
- RNA-seq results: FAN1 expression (gene FAN1, hepatocytes): −0.37
- RNA-seq results: FARS2 expression (gene FARS2, hepatocytes): −0.21
- RNA-seq results: FASLG expression (gene FASLG, hepatocytes): −0.55
- RNA-seq results: FGA expression (gene FGA, hepatocytes): 0.07
- RNA-seq results: FGD1 expression (gene FGD1, hepatocytes): −0.4
- RNA-seq results: FGFR2 expression (gene FGFR2, hepatocytes): −0.97
- RNA-seq results: FIG4 expression (gene FIG4, hepatocytes): 0.29
- RNA-seq results: FIS1 expression (gene FIS1, hepatocytes): −0.06
- RNA-seq results: FTCD expression (gene FTCD, hepatocytes): 0.18
- RNA-seq results: FTH1 expression (gene FTH1, hepatocytes): 0.45
- RNA-seq results: FUCA1 expression (gene FUCA1, hepatocytes): 0.02
- RNA-seq results: FXN expression (gene FXN, hepatocytes): −0.33
- RNA-seq results: G6PC3 expression (gene G6PC3, hepatocytes): −0.17
- RNA-seq results: G6PC expression (gene G6PC, hepatocytes): 1.05
- RNA-seq results: G6PD expression (gene G6PD, hepatocytes): 0.7
- RNA-seq results: GALK1 expression (gene GALK1, hepatocytes): 0.05
- RNA-seq results: GALK2 expression (gene GALK2, hepatocytes): 0.08
- RNA-seq results: GALT expression (gene GALT, hepatocytes): 0.37
- RNA-seq results: GATA6 expression (gene GATA6, hepatocytes): −0.01
- RNA-seq results: GATM expression (gene GATM, hepatocytes): −0.21
- RNA-seq results: GBA expression (gene GBA, hepatocytes): 0.33
- RNA-seq results: GBE1 expression (gene GBE1, hepatocytes): 0.06
- RNA-seq results: GCH1 expression (gene GCH1, hepatocytes): 0.02
- RNA-seq results: GCKR expression (gene GCKR, hepatocytes): 0.43
- RNA-seq results: GCLC expression (gene GCLC, hepatocytes): 0.07
- RNA-seq results: GOSH expression (gene GOSH, hepatocytes): −0.26
- RNA-seq results: RRM2B (gene RRM2B, hepatocytes): −0.30
- RNA-seq results: RSAD1 (gene RSAD1, hepatocytes): −0.06
- RNA-seq results: SAMHD1 (gene SAMHD1, hepatocytes): −0.29
- RNA-seq results: SC5D (gene SC5D, hepatocytes): −0.23
- RNA-seq results: SCARB1 (gene SCARB1, hepatocytes): 0.08
- RNA-seq results: SCN9A (gene SCN9A, hepatocytes): 0.14
- RNA-seq results: SDCCAG8 (gene SDCCAG8, hepatocytes): −0.25
- RNA-seq results: SEPN1 (gene SEPN1, hepatocytes): −0.10
- RNA-seq results: SERAC1 (gene SERAC1, hepatocytes): −0.29
- RNA-seq results: SERPINA1 (gene SERPINA1, hepatocytes): 0.01
- RNA-seq results: SERPING1 (gene SERPING1, hepatocytes): −0.11
- RNA-seq results: SERPINI1 (gene SERPINI1, hepatocytes): −0.36
- RNA-seq results: SETBP1 (gene SETBP1, hepatocytes): 0.22
- RNA-seq results: SFXN4 (gene SFXN4, hepatocytes): −0.33
- RNA-seq results: SLC10A1 (gene SLC10A1, hepatocytes): 0.00
- RNA-seq results: SLC10A3 (gene SLC10A3, hepatocytes): 0.23
- RNA-seq results: SLC10A5 (gene SLC10A5, hepatocytes): 0.63
- RNA-seq results: SLC10A7 (gene SLC10A7, hepatocytes): −0.35
- RNA-seq results: SLC11A2 (gene SLC11A2, hepatocytes): −0.26
- RNA-seq results: SLC19A1 (gene SLC19A1, hepatocytes): −0.42
- RNA-seq results: SLC19A2 (gene SLC19A2, hepatocytes): 0.22
- RNA-seq results: SLC19A3 (gene SLC19A3, hepatocytes): 0.00
- RNA-seq results: SLC22A1 (gene SLC22A1, hepatocytes): −0.07
- RNA-seq results: SLC22A5 (gene SLC22A5, hepatocytes): 0.32
- RNA-seq results: SLC25A1 (gene SLC25A1, hepatocytes): 0.11
- RNA-seq results: SLC25A10 (gene SLC25A10, hepatocytes): −0.12
- RNA-seq results: SLC25A12 (gene SLC25A12, hepatocytes): −0.11
- RNA-seq results: SLC25A13 (gene SLC25A13, hepatocytes): −0.15
- RNA-seq results: SLC25A15 (gene SLC25A15, hepatocytes): −0.21
- RNA-seq results: SLC25A19 (gene SLC25A19, hepatocytes): −0.35
- RNA-seq results: SLC25A20 (gene SLC25A20, hepatocytes): −0.28
- RNA-seq results: SLC25A29 (gene SLC25A29, hepatocytes): 0.25
- RNA-seq results: SLC25A32 (gene SLC25A32, hepatocytes): −0.44
